Results: patent US9309196B2, “Indole derivatives and process for their preparation” (Ramot at Tel-Aviv University Ltd., priority 2010, dated 2016)

Target: T1, monomeric Aβ1-42 (Homo sapiens, UniProt P05067)
T1 construct: Aβ1-42 (#60-0-80, American Peptide, Sunnyvale, Calif. USA); purchased American Peptide, Sunnyvale, Calif; USA #60-0-80
Assay: Surface plasmon resonance (SPR) binding of compounds to immobilized Aβ1-42 monomers (Biacore X100)
Conditions: compounds 0.1 nM to 300 nM, 25° C., steady-state analysis, repeated tests
Protocol: Aβ monomers were covalently coupled to one flow cell of CM7 sensor chips (GE Lifesciences, Uppsala, Sweden) via primary amines using the Amine Coupling Kit (GE Lifesciences, Uppsala, Sweden). As a control, ethanolamine was immobilized on the reference channel. […] One RU represents about 1 pg/mm^2 of the analytes on the surface matrix of the sensor chip.
Concentrations were tested in duplicate.
The RUs elicited by the compound injected into the ethanolamine control flow cell was set as reference response and subtracted from the RUs elicited by the same compound injected to the Aβ saturated flow cell. The relationships between each RU obtained at the steady state of binding (plateau of the binding curve) and each concentration of the compound were plotted.
After the analyte injection was stopped, HBS-EP buffer was flowed over the chip for 180 s to allow the bound analyte to dissociate from the immobilized Aβ and the dissociation curves were obtained.
The dissociation equilibrium constant KD of the analyte to the immobilized Aβ was determined from the steady-state levels estimating the maximum RU Rmax and calculating the KD as the concentration of the compound that elicited one-half of the Rmax.

T1 sequence (P05067 672-713 limits assumed): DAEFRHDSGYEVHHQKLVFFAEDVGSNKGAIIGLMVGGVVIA

IC50	Structure (SMILES)
0.5 nM	CC(C)(/C=C/[C@H](N)Cc1c[nH]c2ccccc12)C(N)=O [Example 3, (E)-(R)-5-Amino-6-(1H-indol-3-yl)-2,2-dimethyl-hex-3-enoic acid amide]
6.8 nM	CNC(=O)C(C)(C)/C=C/[C@H](N)Cc1c[nH]c2ccccc12 [Example 4, (E)-(R)-5-Amino-6-(1H-indol-3-yl)-2,2-dimethyl-hex-3-enoic-acid-methylamide]
42.1 nM	CC(=O)N[C@@H](/C=C/C(C)(C)C(=O)O)Cc1c[nH]c2ccccc12 [Example 5, (E)-(R)-5-Acetylamino-6-(1H-indol-3-yl)-2,2-dimethyl-hex-3-enoic-acid]
